Data taken from article PMC5730592, “Parallelogram based approach for in vivo dose estimation of genotoxic metabolites in humans with relevance to reduction of animal experiments” (Scientific Reports, 2017).
Values joined by “and” are separate entries in the source; they are usually repeats but may differ in a detail not shown here. Equal entries are not always repeated. Where two headings read alike, the source gives them in different places.

Tests used:
[1] = male rat, different AA exposure studies, various methods; cited from earlier work
[2] = cited from earlier work
[3] = In vivo dose (AUC) in rat calculated from measured Hb adduct levels after AA exposure; details: rat in vivo study used (AA in drinking water)
Procedure: (§1) The in vivo dose or AUC of a compound in blood is the concentration integrated over time (Eq. 2).2 AUC=∫tC(t)dt A method to infer the AUC of an electrophilic compound or metabolite from measured Hb adduct levels (A) has been developed and established by our research group for quantitative monitoring of exposure in humans or for application in animal studies[1],[3]. When Hb adduct formation is measured a short time after a single acute exposure, or after incubation in vitro, AUC can be calculated using Eq. 3. This equation is based on A, and the second-order reaction rate constant (kNu) for the formation of an adduct to a nucleophilic site in Hb from the concerned electrophile.3 AUC=A/kNu
(§2) For calculating the daily AUC from a longer duration of exposure, the daily adduct level increments (a) have to be calculated considering the accumulation and elimination of adducts due to lifetime of the erythrocytes (t er). […] From continuous or subchronic exposure when the exposure time (t) is shorter than t er, the accumulated adduct level is calculated [a × t × (1 − t/2t er)][49].
For in vivo data on AUC of AA and of GA from AA exposure in rats, a study on short-term oral exposure of rats was used[24]. […] Blood samples were collected and AA- and GA-adducts to N-terminal valine in Hb were measured as described above, and recalculated to the daily increment of the adduct level. […]

[4] = liver microsomes, rat (male, SD) vs. human (male); cited from earlier work
[5] = In vivo dose (AUC) in human calculated from measured Hb adduct levels after AA exposure; details: human in vivo study used (dietary AA)
Procedure: as §1, §2
In vivo dose or AUC of AA and of GA in human after intake of AA-rich food was obtained from Vikström et al.[23]. […] The measured adduct levels were used to calculate the daily adduct level increment, a, and adjusted for intake per kg bw (exposure dose 11 μg AA/kg bw). […]

[6] = cited from earlier work; remark: listed apart in the source
[7] = design: method as in Doerge at al. (2005); details: male F344 rats, single dietary exposure ca. 100 µg AA/kg bw, n = 7, direct measurements; ref Doerge at al. (2005); cited from earlier work
[8] = Parallelogram approach prediction of AUC-DEB in rat from BD exposure; details: from the parallelogram approach
Procedure: The inter-species extrapolation was performed using in vitro metabolic data on enzyme kinetics and published Hb adduct data[6]. This study was initiated as the AUC of DEB (AUC-DEB), in humans exposed to BD, had not been possible to measure with available methods.
(§3) In our first application of the parallelogram approach, AUC-DEB was predicted in a case study on BD exposure. […] In the case of BD, the relatively large inter-species differences in metabolism were an advantage for testing of the approach.

[9] = design: method as in PMID 25448046; details: mouse exposed to BD; cited from earlier work
[10] = design: method as in PMID 25448046; details: rat exposed to BD; cited from earlier work
[11] = design: method as in PMID 25448046; details: human, for 1 ppm·h of BD exposure; cited from earlier work
[12] = design: method as in PMID 25448046; details: mouse, for 1 ppm·h of BD exposure; cited from earlier work
[13] = design: method as in PMID 25448046; details: rat, for 1 ppm·h of BD exposure; cited from earlier work
[14] = AUC-DEB in rat calculated from measured Hb adduct levels after BD exposure; format: in vivo
Source text: as §3

[15] = design: method as in PMID 25448046; details: occupationally BD-exposed humans; cited from earlier work

SMILES	range of AUC-AA [1]	AUC-AA ([2]; Rat (male F344), 500 and 2000 μg AA/kg bw and day in drinking water, one week, n = 6, from Hb adducts)	AUC of AA ([2]; SD rat (male), subchronic intraperitoneal AA, Hb adducts on cysteine site) [nM·h per μg AA per kg bw]	AUC-AA ([2]; male F344 rats, single dose 0.1 mg AA/kg bw, Hb adducts, ref Tareke et al. (2006)) [nM·h/ μg AA per kg bw]	in vivo levels of AA (estimated) [3] [µM]	oxidation to GA, rat compared to human (times faster in rat) [4]	in vivo levels of AA (estimated) [5]	daily Hb adduct level increment per exposure dose ([6]; Human, AA-rich food 4 days, 11 μg AA/kg bw, adducts to N-terminal valine)	AUC-AA ([6]; Human, ca. 11 μg AA/kg bw and day through food, 4 days, n = 9, from Hb adducts)	AUC-AA ([6]; Humans, ca. 2.5 μg AA/kg bw daily through food, 28 days, n = 9, ref Vikström et al. (2011)) [nM·h/ μg AA per kg bw]	AUC-AA ([6]; Humans, single dose in drinking water 500, 1000 and 3000 µg AA/kg bw, n = 6 males, ref Fennell et al. (2005)) [nM·h/ μg AA per kg bw]	AUC-AA [7] [nM·h/ μg AA per kg bw]	ratio for rat-to-human of AUC-DEB per AUC-EB [8]	AUC-DEB calculated from measured Hb adducts levels [9] [nM·h/ppm·h BD]	AUC-DEB calculated from measured Hb adducts levels [10] [nM·h/ppm·h BD]	AUC-DEB predicted (parallelogram approach) [11] [nM·h]	AUC-DEB predicted (parallelogram approach) [12] [nM·h]	AUC-DEB predicted (parallelogram approach) [13] [nM·h]	ratio for rat-to-human of AUC-DEB per AUC-EB [14]	AUC-DEB calculated from measured Hb adducts levels [15] [nM·h/ppm·h BD]
C=CC(N)=O [AA, Acrylamide]	18–80 nM·h per μg AA per kg bw	34 ± 3 nM·h/μg AA per kg bw and 34 nM·h/μg AA per kg bw	28.2	23	~25	ca. 3 times	about 100 nM	1.4 pmol/g globin per μg AA/kg bw and day	212 ± 56 nM·h/μg AA per kg bw and 212 nM·h/μg AA per kg bw	120	246	18	–	–	–	–	–	–	–	–
C1OC1C1CO1 (centres unmarked) [DEB, 1,2:3,4-diepoxbutane]	–	–	–	–	–	–	–	–	–	–	–	–	2.2	38	1.37	0.078	41	1.26	4.3	0.023
